The source of these data is ChEMBL document CHEMBL5154681, “Small Amphiphilic Peptides: Activity Against a Broad Range of Drug-Resistant Bacteria and Structural Insight into Membranolytic Properties” (J Med Chem, 2022).

≈ marks a conversion by molar mass, not a printed value. Calls of active or inactive are those of the source. The calls are words filed in the database; no cut-off is given here.

One data set deals with Erythrocyte. As to the kind of experiment: Hemolytic activity in human RBC assessed as hemolysis incubated for 2 hrs by spectrophotometer analysis. It counts as toxicity, cell-based. Particulars: erythrocyte, 2 h.
In data set [1] the test system is Staphylococcus aureus. Put plainly: Antibacterial activity against methicillin resistant Staphylococcus aureus ATCC BAA-1556 incubated for 24 hrs by microtiter plate method. The data set is classed as functional.
The test system of data set [2] is Pseudomonas aeruginosa. As to the kind of experiment: Antibacterial activity against Pseudomonas aeruginosa ATCC 27883 incubated for 24 hrs by microtiter plate method. The data set is classed as functional.
The subject of data set [3] is Staphylococcus aureus. As to the kind of experiment: Antibacterial activity against Staphylococcus aureus ATCC 29213 incubated for 24 hrs by microtiter plate method. It counts as functional.
In data set [4] the test system is Escherichia coli. Put plainly: Antibacterial activity against Escherichia coli ATCC 25922 incubated for 24 hrs by microtiter plate method. As to conditions: 24 h. It counts as functional.
The test system of data set [5] is Klebsiella pneumoniae. As to the kind of experiment: Antibacterial activity against Klebsiella pneumoniae ATCC 13883 […] incubated for 24 hrs by microtiter plate method. It counts as functional.
Data set [6] relates to Klebsiella pneumoniae. Put plainly: Antibacterial activity against carbapenem-resistant Klebsiella pneumoniae ATCC BAA-2470 incubated for 24 hrs by microtiter plate method. The data set is classed as functional.
The test system of another data set is Acinetobacter baumannii. As to the kind of experiment: Antibacterial activity against ciprofloxacin resistance Acinetobacter baumannii ATCC BAA1605 incubated for 24 hrs by microtiter plate method. The data set is classed as functional.
In data set [7] the test system is Pseudomonas aeruginosa. As to the kind of experiment: Antibacterial activity against Pseudomonas aeruginosa ATCC 10145 incubated for 24 hrs by microtiter plate method. The data set is classed as functional.
Data set [8] relates to Pseudomonas aeruginosa. Put plainly: Antibacterial activity against imipenem resistant Pseudomonas aeruginosa ATCC BAA-1744 incubated for 24 hrs by microtiter plate method. It counts as functional.
Data set [9] concerns Staphylococcus aureus. Put plainly: Antibacterial activity against methicillin resistant Staphylococcus aureus ATCC BAA-1556 incubated for 24 hrs. It counts as functional.
The subject of data set [10] is Escherichia coli. Put plainly: Antibacterial activity against Escherichia coli ATCC 25922 incubated for 24 hrs. It counts as functional.
Data set [11] has as its system Staphylococcus aureus. As to the kind of experiment: Antibacterial activity against methicillin resistant Staphylococcus aureus ATCC BAA-1556 after 24 hrs in presence of 150 mM of NaCl by microtiter plate method. The data set is classed as functional.
Data set [12] relates to Staphylococcus aureus. Put plainly: Antibacterial activity against methicillin resistant Staphylococcus aureus ATCC BAA-1556 after 24 hrs in presence of 4.5 mM of KCl by microtiter plate method. The data set is classed as functional.
Data set [13] relates to Staphylococcus aureus. As to the kind of experiment: Antibacterial activity against methicillin resistant Staphylococcus aureus ATCC BAA-1556 after 24 hrs in presence of 6 mM of NH4Cl by microtiter plate method. It counts as functional.
Data set [14] has as its system Staphylococcus aureus. Put plainly: Antibacterial activity against methicillin resistant Staphylococcus aureus ATCC BAA-1556 after 24 hrs in presence of 1 mM of by microtiter plate method. The data set is classed as functional.
Data set [15] has as its system Staphylococcus aureus. As to the kind of experiment: Antibacterial activity against methicillin resistant Staphylococcus aureus ATCC BAA-1556 after 24 hrs in presence of 2 mM of CaCl2 by microtiter plate method. It counts as functional.
Data set [16] has as its system Staphylococcus aureus. As to the kind of experiment: Antibacterial activity against methicillin resistant Staphylococcus aureus ATCC BAA-1556 after 24 hrs in presence of fetal bovine serum by microtiter plate method. The data set is classed as functional.
For data set [17], the system named is Escherichia coli. Put plainly: Antibacterial activity against Escherichia coli ATCC 25922 after 24 hrs in presence of 150 mM NaCl by microtiter plate method. It counts as functional.
For data set [18], the system named is Escherichia coli. Put plainly: Antibacterial activity against Escherichia coli ATCC 25922 after 24 hrs in presence of 4.5 mM of KCl at by microtiter plate method. The data set is classed as functional.
Data set [19] concerns Escherichia coli. As to the kind of experiment: Antibacterial activity against Escherichia coli ATCC 25922 assessed as reduction in microbial growth after 24 hrs in presence of 6 mM of NH4Cl at by microtiter plate method. It counts as functional.
The test system of data set [20] is Escherichia coli. As to the kind of experiment: Antibacterial activity against Escherichia coli ATCC 25922 after 24 hrs in presence of 2 mM CaCl2 at by microtiter plate method. It counts as functional.
In data set [21] the test system is Escherichia coli. Put plainly: Antibacterial activity against Escherichia coli ATCC 25922 after 24 hrs in presence of fetal bovine serum by microtiter plate method. It counts as functional.
Data set [22] concerns Escherichia coli. As to the kind of experiment: Bactericidal activity against Escherichia coli ATCC BAA-2452 assessed as reduction of bacterial growth at 4 times MIC by counting formed colonies. Particulars: time <= 4.0 hrs, TDE = time-dependent effect. It counts as functional, organism-based.
The subject of data set [23] is Escherichia coli. As to the kind of experiment: Bactericidal activity against Escherichia coli ATCC BAA-2452 assessed as reduction of bacterial growth at MIC by counting formed colonies. The data set is classed as functional, organism-based. As to conditions: time <= 4.0 hrs, TDE = time-dependent effect.
Data set [24] deals with Staphylococcus aureus. Put plainly: Bactericidal activity against methicillin resistant Staphylococcus aureus ATCC BAA-1556 assessed as reduction of bacterial growth at 4 times MIC by counting formed colonies. Particulars: time <= 4.0 hrs, TDE = time-dependent effect. It counts as functional, organism-based.
For data set [25], the system named is Staphylococcus aureus. As to the kind of experiment: Bactericidal activity against methicillin resistant Staphylococcus aureus ATCC BAA-1556 assessed as reduction of bacterial growth at MIC by counting formed colonies. The data set is classed as functional, organism-based. As to conditions: time <= 4.0 hrs, TDE = time-dependent effect.
The subject of data set [26] is Staphylococcus aureus. Put plainly: Bactericidal activity against methicillin resistant Staphylococcus aureus ATCC BAA-1556 assessed as time required for complete reduction of bacterial growth at MIC by counting formed colonies. The data set is classed as functional.
For data set [27], the system named is Staphylococcus aureus. Put plainly: Bactericidal activity against methicillin resistant Staphylococcus aureus ATCC BAA-1556 assessed as time required for complete reduction of bacterial growth at 4 times MIC by counting formed colonies. The data set is classed as functional.

Usually HC50 stands for the concentration giving 50% haemolysis. As a reminder, the MIC is the lowest concentration that inhibits growth of the organism. Usually MBC stands for the lowest tested concentration that kills the bacteria rather than only halting them. Higher therefore signals less potent killing.

On to `N=C(N)NCCC[C@@H]1NC(=O)[C@H](CCCNC(=N)N)NC(=O)[C@H](C(c2ccccc2)c2ccccc2)NC(=O)[C@H](C(c2ccccc2)c2ccccc2)NC(=O)[C@H](CCCNC(=N)N)NC(=O)[C@H](CCCNC(=N)N)NC(=O)[C@H](C(c2ccccc2)c2ccccc2)NC1=O` (stereo in doubt; 17C), for which the HC50 with Erythrocyte came to 145 µg/mL. Further, the minimal inhibitory concentration (MIC) in the data set on Staphylococcus aureus [1] (24 h) is 12.5 µg/mL (≈ 9.66 µM); in the data set on Pseudomonas aeruginosa [2] (24 h) it was >100 µg/mL.

Turning to `N=C(N)NCCC[C@@H]1NC(=O)[C@H](CCCNC(=N)N)NC(=O)[C@H](Cc2ccc3ccccc3c2)NC(=O)[C@H](Cc2ccc3ccccc3c2)NC(=O)[C@H](CCCNC(=N)N)NC(=O)[C@H](CCCNC(=N)N)NC(=O)[C@H](Cc2ccc3ccccc3c2)NC1=O` (stereo in doubt; 19C), the HC50 with Erythrocyte stood at 110 µg/mL. Further, the MIC with Staphylococcus aureus [1] worked out at 6.2 µg/mL (≈ 5.1 µM); against Staphylococcus aureus [3], 6.2 µg/mL (≈ 5.1 µM); with Pseudomonas aeruginosa [2] (24 h) it was 50 µg/mL (≈ 41.1 µM); with Escherichia coli [4] it was 50 µg/mL (≈ 41.1 µM).

In the case of `O=C(O)c1cn(C2CC2)c2cc(N3CCNCC3)c(F)cc2c1=O` [CIPROFLOXACIN], the MIC in the data set on Staphylococcus aureus [1] (Staphylococcus aureus, ATCC BAA-1556, 24 h, read-out: MIC) came to 3.1 µg/mL (≈ 9.36 µM); in the data set on Staphylococcus aureus [3] (Staphylococcus aureus, ATCC 29213, read-out: MIC), 1.5 µg/mL (≈ 4.53 µM); in the data set on Pseudomonas aeruginosa [2] (Pseudomonas aeruginosa, ATCC 27883, read-out: MIC) it was 0.7 µg/mL (≈ 2.11 µM); in the data set with Klebsiella pneumoniae [5], 1.5 µg/mL (≈ 4.53 µM); in the data set on Klebsiella pneumoniae [6], 0.7 µg/mL (≈ 2.11 µM); in the data set with Acinetobacter baumannii, 0.7 µg/mL (≈ 2.11 µM). The minimum inhibitory concentration (MIC) is 0.7 µg/mL (≈ 2.11 µM) against Pseudomonas aeruginosa [7]; 0.7 µg/mL (≈ 2.11 µM) against Pseudomonas aeruginosa [8]; 1.5 µg/mL with Staphylococcus aureus [11]; 1.5 µg/mL in the data set with Staphylococcus aureus [12]; 0.7 µg/mL in the data set on Staphylococcus aureus [13]; 1.5 µg/mL in the data set with Staphylococcus aureus [14]. Further, the minimum inhibitory concentration (MIC) is 1.5 µg/mL with Staphylococcus aureus [15]; 1.5 µg/mL in the data set on Staphylococcus aureus [16]; 0.3 µg/mL in the data set with Escherichia coli [17]; 0.3 µg/mL in the data set on Escherichia coli [18]; 0.3 µg/mL in the data set with Escherichia coli [19]; 0.3 µg/mL in the data set with Escherichia coli [20]. The MIC in the data set with Escherichia coli [21] was found to be 0.3 µg/mL. In addition, the minimal bactericidal concentration (MBC) is 50 µg/mL (≈ 151 µM) in the data set on Staphylococcus aureus [9] and 12.5 µg/mL (≈ 37.7 µM) against Escherichia coli [10]. Further, the Activity result in the data set on Escherichia coli [22], in the data set with Escherichia coli [23], in the data set on Staphylococcus aureus [24] and with Staphylococcus aureus [25] was “Tde” in each case. Besides, the result in the data set on Staphylococcus aureus [26] and in the data set on Staphylococcus aureus [27] was Active.
